pIC50: −log10 of the molar value.
Molecular target: T1, human kinase Mps-1 (Homo sapiens, UniProt P33981)
T1 construct: N-terminally GST-tagged human full length recombinant Mps-1 kinase; purchased Invitrogen, Karslruhe, Germany PV4071
T1 sequence (P33981 1-857): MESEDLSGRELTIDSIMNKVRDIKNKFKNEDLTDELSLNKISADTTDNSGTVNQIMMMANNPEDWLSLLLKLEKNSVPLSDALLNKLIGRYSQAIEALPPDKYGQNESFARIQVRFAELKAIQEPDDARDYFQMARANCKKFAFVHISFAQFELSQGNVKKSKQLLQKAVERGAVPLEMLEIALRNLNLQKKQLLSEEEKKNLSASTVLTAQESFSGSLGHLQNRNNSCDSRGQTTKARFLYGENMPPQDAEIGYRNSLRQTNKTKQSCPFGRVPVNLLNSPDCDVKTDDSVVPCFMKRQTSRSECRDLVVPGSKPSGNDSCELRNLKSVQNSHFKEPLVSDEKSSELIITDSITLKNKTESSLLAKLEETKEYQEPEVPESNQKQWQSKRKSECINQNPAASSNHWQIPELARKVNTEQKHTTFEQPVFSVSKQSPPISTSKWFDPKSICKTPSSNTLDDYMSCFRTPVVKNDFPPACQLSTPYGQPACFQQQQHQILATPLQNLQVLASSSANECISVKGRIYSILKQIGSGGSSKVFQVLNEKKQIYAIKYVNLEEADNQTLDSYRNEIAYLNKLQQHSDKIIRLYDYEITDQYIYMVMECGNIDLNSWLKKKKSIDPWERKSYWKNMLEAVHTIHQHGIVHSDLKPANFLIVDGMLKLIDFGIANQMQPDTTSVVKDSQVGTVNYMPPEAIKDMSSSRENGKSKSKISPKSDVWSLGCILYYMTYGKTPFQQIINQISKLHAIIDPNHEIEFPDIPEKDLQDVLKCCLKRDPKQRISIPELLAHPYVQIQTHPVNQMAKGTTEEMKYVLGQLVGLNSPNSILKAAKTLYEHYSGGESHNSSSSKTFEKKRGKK
Assay: Mps-1 kinase assay (TR-FRET, 10 μM ATP)
Assay type: biochemical
Settings: N-terminally GST-tagged human full length recombinant Mps-1, read-out: Mps-1 Inhibition, IC50 (Assay with 10 μM ATP)
Protocol: The human kinase Mps-1 phosphorylates a biotinylated substrate peptide. Detection of the phosphorylated product is achieved by time-resolved fluorescence resonance energy transfer (TR-FRET) from Europium-labelled anti-phospho-Serine/Threonine antibody as donor to streptavidin Labelled with cross-linked allophycocyanin (SA-XLent) as acceptor. Compounds are tested for their inhibition of the kinase activity.
N-terminally GST-tagged human full length recombinant Mps-1 kinase (purchased from Invitrogen, Karslruhe, Germany, cat. no PV4071) was used. As substrate for the kinase reaction a biotinylated peptide of the amino-acid sequence PWDPDDADITEILG (C-terminus in amide form, purchased from Biosynthan GmbH, Berlin) was used.
For the assay 50 nl of a 100-fold concentrated solution of the test compound in DMSO was pipetted into a black low volume 384 well microtiter plate (Greiner Bio-One, Frickenhausen, Germany), 2 μl of a solution of Mps-1 in assay buffer [0.1 mM sodium-ortho-vanadate, 10 mM MgCl2, 2 mM DTT, 25 mM Hepes pH 7.7, 0.05% BSA, 0.001% Pluronic F-127] were added and the mixture was incubated for 15 min at 22° C. to allow pre-binding of the test compounds to Mps-1 before the start of the kinase reaction. Then the kinase reaction was started by the addition of 3 μl of a solution of […] (ATP, 16.7 μM=>final conc. in the 5 μl assay volume is 10 μM) and peptide substrate (1.67 μM=>final conc. in the 5 μl assay volume is 1 μM) in assay buffer and the resulting mixture was incubated for a reaction time of 60 min at 22° C. The concentration of Mps-1 in the assay was adjusted to the activity of the enzyme lot and was chosen appropriate to have the assay in the linear range, typical enzyme concentrations were in the range of about 1 nM (final conc. in the 5 μl assay volume). The reaction was stopped by the addition of 3 μl of a solution of HTRF detection reagents (100 mM Hepes pH 7.4, 0.1% BSA, 40 mM EDTA, 140 nM Streptavidin-XLent [#61GSTXLB, Fa. Cis Biointernational, Marcoule, France], 1.5 nM anti-phospho(Ser/Thr)-Europium-antibody [#AD0180, PerkinElmer LAS, Rodgau-Jügesheim, Germany].
The resulting mixture was incubated 1 h at 22° C. to allow the binding of the phosphorylated peptide to the anti-phospho(Ser/Thr)-Europium-antibody. Subsequently the amount of phosphorylated substrate was evaluated by measurement of the resonance energy transfer from the Europium-labelled anti-phospho(Ser/Thr) antibody to the Streptavidin-XLent. Therefore, the fluorescence emissions at 620 nm and 665 nm after excitation at 350 nm was measured in a Viewlux TR-FRET reader (PerkinElmer LAS, Rodgau-Jügesheim, Germany). The “blank-corrected normalized ratio” (a Viewlux specific readout, similar to the traditional ratio of the emissions at 665 nm and at 622 nm, in which blank and Eu-donor crosstalk are subtracted from the 665 nm signal before the ratio is calculated) was taken as the measure for the amount of phosphorylated substrate. The data were normalised (enzyme reaction without inhibitor=0% inhibition, all other assay components but no enzyme=100% inhibition).

`COc1cc(C(=O)N2CCOCC2)ccc1Nc1nc2ccc(-c3ccc(NC(=O)Cc4ccc(F)cc4)cc3)nn2n1` [Example 1.1, 2-(4-fluorophenyl)-N-[4-(2-{[2-methoxy-4-(morpholin-4-ylcarbonyl)phenyl]amino}[1,2,4]triazolo[1,5-b]pyridazin-6-yl)phenyl]acetamide] was tested. Which pIC50 did it give?
The pIC50 was no less than 9.00.

`COc1cc(C(C)(C)O)ccc1Nc1nc2ccc(-c3ccc(NC(=O)Cc4ccc(F)cc4)cc3)nn2n1` [Example 1.2, 2-(4-fluorophenyl)-N-[4-(2-{[4-(2-hydroxypropan-2-yl)-2-methoxyphenyl]amino}[1,2,4]triazolo[1,5-b]pyridazin-6-yl)phenyl]acetamide] was tested. Which pIC50 did it give?
The pIC50 was no less than 9.00.

How did the pIC50 turn out when `N#Cc1ccccc1Nc1nc2cnc(-c3ccc(NC(=O)Cc4ccc(F)cc4)cc3)cn2n1` [Example 2.1, N-(4-{2-[(2-cyanophenyl)amino][1,2,4]triazolo[1,5-a]pyrazin-6-yl}phenyl)-2-(4-fluorophenyl)acetamide] was run?
The pIC50 was no less than 9.00.

`N#Cc1c(F)cccc1Nc1nc2cnc(-c3ccc(NC(=O)Cc4ccc(F)cc4)cc3)cn2n1` [Example 2.2, N-(4-{2-[(2-cyano-3-fluorophenyl)amino][1,2,4]triazolo[1,5-a]pyrazin-6-yl}phenyl)-2-(4-fluorophenyl)acetamide] was tested. Which pIC50 did it give?
Its pIC50 is no less than 9.00.

With `N#Cc1ccccc1Nc1nc2cnc(-c3ccc(NC(=O)Cc4ccccc4)cc3)cn2n1` [Example 2.3, N-(4-{2-[(2-cyanophenyl)amino][1,2,4]triazolo[1,5-a]pyrazin-6-yl}phenyl)-2-phenylacetamide] as the compound, how does the pIC50 read?
Its pIC50 is 8.59.

With `COc1cc(N2CCN(C)CC2)ccc1Nc1nc2cnc(-c3ccc(NC(=O)Cc4ccc(F)cc4)cc3)cn2n1` [Example 2.4, 2-(4-fluorophenyl)-N-[4-(2-{[2-methoxy-4-(4-methylpiperazin-1-yl)phenyl]amino}[1,2,4]triazolo[1,5-a]pyrazin-6-yl)phenyl]acetamide] as the compound, how does the pIC50 read?
The pIC50 was no less than 9.00.

How did the pIC50 turn out when `N#Cc1c(F)cccc1Nc1nc2cnc(-c3ccc(NC(=O)Cc4ccccc4)cc3)cn2n1` [Example 2.5, N-(4-{2-[(2-cyano-3-fluorophenyl)amino][1,2,4]triazolo[1,5-a]pyrazin-6-yl}phenyl)-2-phenylacetamide] was run?
The pIC50 was no less than 9.00.

`N#Cc1ccccc1Nc1nc2cnc(-c3ccc(NC(=O)Cc4ccc(F)c(F)c4)cc3)cn2n1` [Example 2.6, N-(4-{2-[(2-cyanophenyl)amino][1,2,4]triazolo[1,5-a]pyrazin-6-yl}phenyl)-2-(3,4-difluorophenyl)acetamide] was tested. Which pIC50 did it give?
The pIC50 was 8.68.

How did the pIC50 turn out when `N#Cc1c(F)cccc1Nc1nc2cnc(-c3ccc(NC(=O)Cc4ccc(F)c(F)c4)cc3)cn2n1` [Example 2.7, N-(4-{2-[(2-cyano-3-fluorophenyl)amino][1,2,4]triazolo[1,5-a]pyrazin-6-yl}phenyl)-2-(3,4-difluorophenyl)acetamide] was run?
Its pIC50 is 8.54.

How did the pIC50 turn out when `COc1cc(S(C)(=O)=O)ccc1Nc1nc2cnc(-c3ccc(NC(=O)Cc4ccc(F)cc4)cc3)cn2n1` [Example 2.8, 2-(4-fluorophenyl)-N-[4-(2-{[2-methoxy-4-(methylsulfonyl)phenyl]amino}[1,2,4]triazolo[1,5-a]pyrazin-6-yl)phenyl]acetamide] was run?
Its pIC50 is no less than 9.00.

`Cc1cc(-c2cn3nc(Nc4ccccc4C#N)nc3cn2)cc(C)c1O` [Example 3.1, 2-{[6-(4-hydroxy-3,5-dimethylphenyl)[1,2,4]triazolo[1,5-a]pyrazin-2-yl]amino}benzonitrile] was tested. Which pIC50 did it give?
The pIC50 was 7.47.

With `N#Cc1ccccc1Nc1nc2cnc(-c3ccc(NC(=O)CC4CC4)cc3)cn2n1` [Example 3.2, N-(4-{2-[(2-cyanophenyl)amino][1,2,4]triazolo[1,5-a]pyrazin-6-yl}phenyl)-2-cyclopropylacetamide] as the compound, how does the pIC50 read?
Its pIC50 is 7.65.

With `N#Cc1ccccc1Nc1nc2cnc(-c3cccc(C(=O)NC4CC4)c3)cn2n1` [Example 3.3, 3-{2-[(2-cyanophenyl)amino][1,2,4]triazolo[1,5-a]pyrazin-6-yl}-N-cyclopropylbenzamide] as the compound, how does the pIC50 read?
Its pIC50 is 7.08.

`CCNC(=O)c1cccc(-c2cn3nc(Nc4ccccc4C#N)nc3cn2)c1` [Example 3.4, 3-{2-[(2-cyanophenyl)amino][1,2,4]triazolo[1,5-a]pyrazin-6-yl}-N-ethylbenzamide] was tested. Which pIC50 did it give?
Its pIC50 is 6.69.

`N#Cc1ccccc1Nc1nc2cnc(-c3cccc(C(=O)NC4CCCC4)c3)cn2n1` [Example 3.5, 3-{2-[(2-cyanophenyl)amino][1,2,4]triazolo[1,5-a]pyrazin-6-yl}-N-cyclopentylbenzamide] was tested. Which pIC50 did it give?
Its pIC50 is 7.45.

With `N#Cc1c(F)cccc1Nc1nc2cnc(-c3ccc(NC(=O)CC4CC4)cc3)cn2n1` [Example 3.6, N-(4-{2-[(2-cyano-3-fluorophenyl)amino][1,2,4]triazolo[1,5-a]pyrazin-6-yl}phenyl)-2-cyclopropylacetamide] as the compound, how does the pIC50 read?
Its pIC50 is 7.84.

How did the pIC50 turn out when `N#Cc1ccccc1Nc1nc2cnc(-c3ccc(N)cc3)cn2n1` [Example 3.7, 2-{[6-(4-aminophenyl)[1,2,4]triazolo[1,5-a]pyrazin-2-yl]amino}benzonitrile] was run?
The pIC50 was 6.35.

How did the pIC50 turn out when `COc1ccccc1Nc1nc2cnc(-c3cc(C)c(O)c(C)c3)cn2n1` [Example 3.8, 4-{2-[(2-methoxyphenyl)amino][1,2,4]triazolo[1,5-a]pyrazin-6-yl}-2,6-dimethylphenol] was run?
Its pIC50 is 7.15.

How did the pIC50 turn out when `N#Cc1ccccc1Nc1nc2cnc(-c3cccc(C(=O)NC4CCCCC4)c3)cn2n1` [Example 3.9, 3-{2-[(2-cyanophenyl)amino][1,2,4]triazolo[1,5-a]pyrazin-6-yl}-N-cyclohexylbenzamide] was run?
Its pIC50 is 7.16.

How did the pIC50 turn out when `COc1cc(C(=O)N2CCOCC2)ccc1Nc1nc2ccc(-c3ccc(NC(=O)Cc4ccc(F)cc4)cc3)cc2s1` [Example 4.1, 2-(4-fluorophenyl)-N-[4-(2-{[2-methoxy-4-(morpholin-4-ylcarbonyl)phenyl]amino}-1,3-benzothiazol-6-yl)phenyl]acetamide] was run?
Its pIC50 is no less than 9.00.

`COc1cc(S(C)(=O)=O)ccc1Nc1nc2ccc(-c3ccc(NC(=O)Cc4ccc(F)cc4)cc3)cc2s1` [Example 4.2, 2-(4-fluorophenyl)-N-[4-(2-{[2-methoxy-4-(methylsulfonyl)phenyl]amino}-1,3-benzothiazol-6-yl)phenyl]acetamide] was tested. Which pIC50 did it give?
The pIC50 was 8.54.

`Nc1nc2ccc(-c3ccc(NC(=O)Cc4ccc(F)cc4)cc3)cc2s1` [Example 4.3, N-[4-(2-amino-1,3-benzothiazol-6-yl)phenyl]-2-(4-fluorophenyl)acetamide] was tested. Which pIC50 did it give?
The pIC50 was 8.07.

How did the pIC50 turn out when `COc1cc(S(C)(=O)=O)cnc1Nc1cn2cc(-c3ccc(NC(=O)[C@H](C)c4ccc(F)cc4)cc3)ccc2n1` [Example 7.1, (2R)-2-(4-fluorophenyl)-N-[4-(2-{[3-methoxy-5-(methylsulfonyl)pyridin-2-yl]amino}imidazo[1,2-a]pyridin-6-yl)phenyl]propanamide] was run?
The pIC50 was no less than 9.00.
